The results in this text go back to US20160129089A1, “COMBINATION THERAPY” (ANTISENSE THERAPEUTICS LTD, priority 2013, published 2016).

e = 2'-O-(2-methoxyethyl) (MOE); d = 2'-deoxy (DNA)

Data set [1] has as its system human growth hormone receptor mRNA. The data set is described as follows: Inhibition of human growth hormone receptor mRNA levels by antisense oligonucleotides, quantitative real-time PCR, MCF7 cells. The data set is classed as cell-based. On the set-up: concentration or dose not given beside the values. The following applies: averages from three experiments. (Real-time PCR tracks product formation cycle by cycle.)

For another data set, the system named is liver GHr RNA. The data set is described as follows: Monotherapy and combination mouse study: relative liver GHR RNA. It is filed as in vivo, mice. Particulars: compared to saline control; for reduction of liver GHr RNA: week 3. The source says:
(§1) The GHr and IGF-I RNA data were statistically analysed using one-way ANOVA followed by Dunnetts test when comparing treated to saline control. The sIGF-I data were statistically analyzed using one-way […] comparisons.

The next data set concerns liver IGF-I RNA. The data set is described as follows: Monotherapy and combination mouse study: relative liver IGF-I RNA. The data set is classed as in vivo, mice. The following applies: compared to saline control; for reduction of liver IGF-I RNA: week 3, p=0.05.
Text: as §1

Another data set relates to serum IGF-I. The data set is described as follows: Monotherapy and combination mouse study: serum IGF-I. The data set is classed as in vivo, mice. The following applies: for reduction of sIGF-I: week 1.
Text: as §1

For “272360 (antisense TATTAGTTACCTTGAGGAGA; sugars from the 5' end e5 d10 e5, all phosphorothioate, methylation of C not given here) [compound 272360]”, the “% INHIB (inhibitory effect on hGHR mRNA levels)” value in data set [1] was found to be 0%.

As to “272361 (antisense ATTTTCCTTCCTAGAAAATA; sugars from the 5' end e5 d10 e5, all phosphorothioate, methylation of C not given here) [compound 272361]”, the “% INHIB (inhibitory effect on hGHR mRNA levels)” value in data set [1] is listed as 10%.

Take `C[C@@H](O)[C@@H]1NC(=O)[C@H](CCCCN)NC(=O)[C@@H](Cc2c[nH]c3ccccc23)NC(=O)[C@H](Cc2ccccc2)NC(=O)[C@@H](NC(=O)[C@H](N)Cc2ccccc2)CSSC[C@@H](C(=O)N[C@H](CO)[C@@H](C)O)NC1=O` [Octreotide, reference compound]: in the data set with liver GHr RNA (octreotide 1.25 mg/kg twice daily, p=0.001), the “reduction of liver GHr RNA” value is reported as 82.9%. Also, the “reduction of liver IGF-I RNA” value with liver IGF-I RNA (octreotide 1.25 mg/kg twice daily) turned out to be 47.7%. Besides, the “reduction of sIGF-I” value with serum IGF-I (octreotide 1.25 mg/kg twice daily, compared to baseline control levels, p<0.04) is 15%; with serum IGF-I (octreotide 1.25 mg/kg twice daily, p=0.012), 25.1%. Also, the “reduction of serum IGF-I” value in the data set on serum IGF-I (octreotide 1.25 mg/kg twice daily, week 3, compared to saline control, p=0.03) came to 25.2%.

Consider “Somavert: current medicinal treatment for acromegaly, used as monotherapy or with a Somatostatin agonist”, for which the “reduction of liver GHr RNA” value with liver GHr RNA (Somavert 20 mg/kg, every other day, p=0.01) turned out to be 79.9%. In addition, in the data set on liver GHr RNA (Somavert lower dose 5 mg/kg, every other day, p=0.05), the “increase of liver GHr RNA” value was determined as 23%. In the data set with liver IGF-I RNA (Somavert 20 mg/kg, every other day), the “reduction of liver IGF-I RNA” value was found to be 43.2%. Moreover, the “effect on liver IGF-I RNA” value with liver IGF-I RNA (Somavert lower dose 5 mg/kg, every other day) was “no effect”. Further, the “increase of sIGF-I levels” value in the data set with serum IGF-I (higher Somavert dose, 1 week, patent suspects an issue with the assay) was over 2 fold.
